Reference: publication PMC6971092, “Identification of emulsifier potato peptides by bioinformatics: application to omega-3 delivery emulsions and release from potato industry side streams” (Scientific Reports, 2020)
Residues, ends and D or L forms follow the SMILES beside them. No end group written: not given here.

Tests used:
[1] = Oxidative stability of emulsions by ESR (PBN-lipid spin adducts); conditions: 5 wt.% fish oil-in-water emulsions; for oxidative stability of emulsion at 20 °C compared to α-10, α-12 and γ-1 (in words): storage at 20 °C; for oxidative stability of emulsion (generation of PBN-lipid spin adducts, in words, Fig. 4): storage 6 days in the dark at both 20 and 37 °C
Method: Oxidative stability of emulsions prepared with selected peptides was studied by electron spin resonance (ESR)[31]. ESR analysis was carried out using a benchtop MINISCOPE MS 5000 ESR spectrometer (MAGNETTECH GMBH, Germany). The instrument settings were as follows: magnetic field 320–360 mT, sweep time 60 s, modulation 0.2 mT and frequency 100 kHz. Emulsions were produced as described in section 2.3.1.2 and PBN was added as an ethanol solution (concentration of 50 mg/mL) to have 30 mM of PBN in the oil phase of the emulsion. The oxidative stability of the emulsions was determined during 6 days storage at 20 or 37 °C and samples were measured at days 0, 1 (only for 37 °C), 2, 4 and 6. For each sampling point, emulsion samples (50 μL) were transferred to borosilicate capillary tubes before they were introduced to the cavity of the ESR. Analyses were performed in triplicate at room temperature.

[2] = Solubility of peptides in sodium acetate-imidazole buffer; format: physicochemical; set-up: key: Soluble: totally soluble; Cloudy: cloudy: no totally soluble; conditions: 0.2 wt.% in 10 mM sodium acetate - 10 mM imidazole buffer (pH 7); shaken 2 h at 50 °C and overnight at room temperature; visual
Method: (§1) Emulsions were produced as reported in our previous work[31]. A total amount of 2 g of 5 wt.% fish oil-in-water emulsion stabilized with 0.2 wt.% potato peptides was produced. Peptides (0.2 wt.%) were dissolved in 10 mM sodium acetate – 10 mM imidazole buffer (pH 7). For that, the peptide solutions were shaken (100 rpm) for 2 h in water bath at 50 °C and overnight at room temperature to allow complete solubilization and rehydration of the peptides (when possible). Primary homogenization was done by adding the fish oil to the peptide-buffer solution and mixing at 18,000 rpm for 30 s by using a POLYTRON PT1200E (Kinematic Inc., New York, USA). Secondary homogenization was done using a MICROSON XL2000 sonicator equipped with a P1 probe (Misonix, Inc., New York, USA). Emulsions were homogenized at an amplitude of 75% (maximum amplitude of 180 μm), running 2 passes of 30 s with a break of 1 min between passes. During sonication the emulsions were surrounded by iced water to minimize the increase in temperature. […] All emulsions were produced and tested in triplicate.
Among the 38 peptides tested, 14 peptides were not totally soluble resulting in cloudy aqueous phases (e.g. no transparent solutions were obtained and white peptides particles could be observed). […] Differences in pH are due to the acidic impurities present in the synthetic peptides used, and to the insufficient capacity of the buffer employed to keep pH constant at 7. Nonetheless, sodium acetate-imidazole buffer was preferred to phosphate buffer in order to avoid interferences of phosphate buffer in oxidative stability studies as consequence of its chelating activity.

[3] = Droplet size of emulsions by laser diffraction; format: physicochemical; conditions: mean ± SD, triplicate
Method: as §1
(§2) The droplet size distribution of the emulsions was measured by laser diffraction in a MASTERSIZER 2000 (Malvern Instruments, Ltd., Worcestershire, UK) at days 0, 1, 3 and 6 during storage in dark at room temperature (~22 °C)[31]. Each emulsion was diluted in recirculating water (3000 rpm), until it reached an obscuration of 12%. The refractive indices of sunflower oil (1.469) and water (1.330) were used as particle and dispersant, respectively. Results are given in volume mean diameter (D4,3). Measurements were made in triplicate. Due to the low volume of emulsions produced, creaming was determined qualitatively by observing the appearance of the emulsions. Peptides forming emulsions with small droplet sizes and no creaming were selected for further study.

[4] = pH of peptide-stabilized emulsions; format: physicochemical; conditions: 5 wt.% fish oil-in-water emulsion stabilized with 0.2 wt.% peptide in 10 mM sodium acetate - 10 mM imidazole buffer (pH 7)
Method: as §1
Among the 38 peptides tested, 14 peptides were not totally soluble resulting in cloudy aqueous phases (e.g. no transparent solutions were obtained and white peptides particles could be observed). […]

[5] = Zeta potential of emulsions; format: physicochemical; conditions: 5 wt.% fish oil-in-water emulsion, 0.2 wt.% peptide; after one day of storage; 10 μL emulsion in 5 mL buffer; 25 °C; mean ± SD, triplicate
Method: as §1
The zeta potential of the emulsions was measured after one day of storage in a ZETASIZER NANO ZS (Malvern instruments Ltd., Worcestershire, UK) with a DTS1070 cell at 25 °C[31]. […] The zeta potential range was set to −100 to +50 mV and the samples were analyzed with 100 runs. […]

[6] = Qualitative observation of creaming of emulsions; format: physicochemical; set-up: key: 1: no creaming; 2: creaming; 3: oil layer above the emulsion; 4: phase separation
Method: as §1, §2

[7] = Iron (Fe2+) chelating activity; format: biochemical; conditions: 0.2 wt.% at pH 7; data not shown
Method: Peptides were dissolved in 10 mM sodium acetate - 10 mM imidazole buffer (pH 7) at 0.2 wt.%. 1 1,1-Diphenyl-2-picrylhydrazyl (DPPH) radical scavenging activity, iron (Fe^2+) chelating activity and ferric (Fe^3+) reducing power were measured as described elsewhere.

Compound | Solubility of peptides [2] | also measured
CC(C)C[C@H](NC(=O)[C@H](CS)NC(=O)[C@H](Cc1ccccc1)NC(=O)[C@H](CCC(N)=O)NC(=O)[C@H](CC(=O)O)NC(=O)[C@H](CC(=O)O)NC(=O)[C@H](CO)NC(=O)[C@H](CO)NC(=O)[C@H](Cc1ccccc1)NC(=O)[C@@H]1CCCN1C(=O)[C@@H](N)CS)C(=O)N[C@@H](CCCCN)C(=O)N[C@H](C(=O)NCC(=O)N[C@H](C(=O)O)C(C)C)C(C)C [β-22] (H-CPFSSDDQFCLKVGV-OH) | Soluble | oxidative stability of emulsion at 20 °C compared to α-10, α-12 and γ-1 (in words) [1]: significantly more oxidatively stable
CC[C@H](C)[C@H](NC(=O)[C@@H](NC(=O)[C@@H](NC(=O)CNC(=O)[C@@H](NC(=O)[C@H](CCCCN)NC(=O)[C@H](C)NC(=O)[C@H](CS)NC(=O)[C@H](Cc1ccccc1)NC(=O)[C@H](CC(N)=O)NC(=O)[C@H](CC(=O)O)NC(=O)[C@H](CC(=O)O)NC(=O)[C@H](CCCNC(=N)N)NC(=O)[C@@H](N)CS)C(C)C)C(C)C)C(C)C)C(=O)O [γ-34] (H-CRDDNFCAKVGVVI-OH) | Cloudy | 
AKDIVPFYFEHGPHIFN [α-14] | Soluble | 
DDNFCAKVGVVIQ [β-30] | Cloudy | 
DNFCAKVGVVIQNGKRR [γ-44] | Cloudy | 
DSPETYEEALKRFAKLLSD [α-12] | Soluble | oxidative stability of emulsion (generation of PBN-lipid spin adducts, in words, Fig. 4) [1]: lowest oxidative stability
DTNGKELNPNSSYRIISIGRGALGGDVYL [γ-42] | Cloudy | 
EALKRFAKLLSD [α-11] | Soluble | 
ELDSRLSYRIISTFWGALGGDVYL [β-21] | Cloudy | 
ELDSRLSYRIISTFWGALGGDVYLGKSPN [β-20] | Cloudy | 
FAKLLSDRKKLRANK [γ-46] | Soluble | 
FCLKVGVIHQNGKRRLALVK [γ-49] | Soluble | oxidative stability of emulsion (generation of PBN-lipid spin adducts, in words, Fig. 4) [1]: highest oxidative stability
FCLKVGVVHQNGKRRLALVKDNP [γ-38] | Soluble | oxidative stability of emulsion at 20 °C compared to α-10, α-12 and γ-1 (in words) [1]: significantly more oxidatively stable
FDVIGGTSTGGLLTAMITTPNENNRP [γ-36] | Soluble | oxidative stability of emulsion (generation of PBN-lipid spin adducts, in words, Fig. 4) [1]: highest oxidative stability
FIPLSTNIFEDQLLNIQFNIPT [β-23] | Cloudy | 
GIIPATILEFLEGQLQEVDNN [γ-48] | Soluble | 
GIKGIIPAIILEFLEGQLQEVDNNKDAR [γ-1] | Soluble | oxidative stability of emulsion (generation of PBN-lipid spin adducts, in words, Fig. 4) [1]: lowest oxidative stability
GKELDPRLSYRI [β-26] | Soluble | 
HQNGKRRLALV [γ-39] | Soluble | 
IGSSSHFGPHIFEGELLNIQFDIS [β-29] | Cloudy | 

Compound | Solubility of peptides [2] | also measured
ILEFLEGQLQEVDN [α-16] | Soluble | 
IPATILEFLEGQLQEVDNN [α-15] | Soluble | 
KDNPETYEEALKRFAKLLS [γ-41] | Soluble | 
KKPVSKDSPETYEEALKRFAKLLSDRKKL [α-10] | Soluble | oxidative stability of emulsion (generation of PBN-lipid spin adducts, in words, Fig. 4) [1]: lowest oxidative stability
KYDGKYLMQVLQE [α-17] | Cloudy | 
KYLMQVLQEKL [α-19] | Soluble | 
KYLMQVLQEKLGE [α-18] | Cloudy | 
LGGDVYLGKSPNSDAPCP [β-31] | Soluble | 
LLTAMITTPNENNRP [γ-37] | Soluble | 
LNIQFNI [β-24] | Cloudy | 
LNIQFNIPTPKLC [β-27] | Cloudy | oxidative stability of emulsion (generation of PBN-lipid spin adducts, in words, Fig. 4) [1]: highest oxidative stability
NPNSSYRIISI [γ-43] | Soluble | 
NRPFAAAKDIVPFYFEHGPHIFN [α-13] | Soluble | 
RDDNFCAKVGVVI [γ-35] | Cloudy | 
SSDDQFCLKVGVV [γ-40] | Cloudy | oxidative stability of emulsion (generation of PBN-lipid spin adducts, in words, Fig. 4) [1]: highest oxidative stability
Sodium caseinate | Soluble | D4,3 (μm) Day 1 ([3]; as Day 0, day 1 of storage in dark at room temperature (~22 °C)): 1.1 ± 0.2 μm; D4,3 (μm) Day 3 ([3]; as Day 0, day 3 of storage in dark at room temperature (~22 °C)): 0.9 ± 0.2 μm; D4,3 (μm) Day 6 ([3]; as Day 0, day 6 of storage in dark at room temperature (~22 °C)): 1.0 ± 0.2 μm; D4,3 (μm) Day 0 ([3]; volume mean diameter, 5 wt.% fish oil-in-water emulsion, 0.2 wt.% peptide, pH 7 buffer, laser diffraction, day 0): 1.1 ± 0.2 μm; pH of emulsion [4]: 6.9; Zeta potential (mV) [5]: −41.5 ± 1.1 mV; Observations Day 0 (creaming) ([6]; appearance of 5 wt.% fish oil-in-water emulsion, 0.2 wt.% peptide, day 0): 1; Observations Day 1 (creaming) ([6]; appearance of emulsion, day 1 of storage at ~22 °C): 1; Observations Day 6 (creaming) ([6]; appearance of emulsion, day 6 of storage at ~22 °C): 1; oxidative stability of emulsion (generation of PBN-lipid spin adducts, in words, Fig. 4) [1]: highest oxidative stability; Fe2+ chelating activity [7]: 98.5 ± 0.2%
TPNENNRPFAAAKDIV [γ-47] | Soluble | 
VGVVIQNGKRR [γ-45] | Soluble | 
VHQNGKRRLALVKDNPLDVSFK [β-28] | Soluble | 
